Results taken from patent publication US8242174B2 (priority 2007, dated 2012).

The compounds below were run against Lethal factor protease (Bacillus anthracis, UniProt P15917) (assay: biochemical).
Sequence of Lethal factor protease (P15917 34-809 limits assumed): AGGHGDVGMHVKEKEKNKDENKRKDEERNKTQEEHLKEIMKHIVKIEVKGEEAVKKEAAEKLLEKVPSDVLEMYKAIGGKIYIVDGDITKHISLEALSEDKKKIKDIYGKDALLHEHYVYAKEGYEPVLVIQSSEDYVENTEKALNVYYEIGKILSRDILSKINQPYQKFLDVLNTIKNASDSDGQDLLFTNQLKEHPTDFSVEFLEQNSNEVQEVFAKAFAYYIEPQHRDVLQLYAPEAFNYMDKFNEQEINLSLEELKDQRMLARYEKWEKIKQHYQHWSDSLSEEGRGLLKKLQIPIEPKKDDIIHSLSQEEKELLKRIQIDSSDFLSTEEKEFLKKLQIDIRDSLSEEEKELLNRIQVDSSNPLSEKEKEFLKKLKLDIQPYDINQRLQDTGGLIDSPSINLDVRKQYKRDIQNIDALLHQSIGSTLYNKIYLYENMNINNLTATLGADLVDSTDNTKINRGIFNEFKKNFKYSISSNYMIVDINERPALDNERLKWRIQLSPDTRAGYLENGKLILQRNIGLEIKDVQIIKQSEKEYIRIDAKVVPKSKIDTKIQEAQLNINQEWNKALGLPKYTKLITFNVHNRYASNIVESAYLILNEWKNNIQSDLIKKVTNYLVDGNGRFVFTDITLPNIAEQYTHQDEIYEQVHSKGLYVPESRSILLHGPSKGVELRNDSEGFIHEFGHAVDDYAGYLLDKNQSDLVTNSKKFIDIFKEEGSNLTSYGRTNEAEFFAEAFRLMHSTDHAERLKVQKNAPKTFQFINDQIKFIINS
In the case of `Cc1cc(N[C@@H](C)C(=O)NO)cc(C)c1F` [Compound 167498, (S)-2-(4-Fluoro-3,5-dimethyl-phenylamino)-N-hydroxy-propionamide], the Ki is reported as 51000 nM.
`Cc1cc(N[C@H](CCCCNC(=O)OCc2ccccc2)C(=O)NO)cc(C)c1F` [Compound 167503, (R)-[5-(4-Fluoro-3,5-dimethyl-phenylamino)-5-hydroxycarbamoyl-pentyl]-carbamic acid benzyl ester] was tested, and the Ki was 290 nM.
For `Cc1cc(N[C@H](CCCCN)C(=O)NO)cc(C)c1F` [Compound 167517, (R)-6-Amino-2-(4-fluoro-3,5-dimethyl-phenylamino)-hexanoic acid hydroxyamide], the Ki was 250 nM.
In the case of `Cc1cc(N[C@H](CCCCNS(=O)(=O)c2cc(C)c(F)c(C)c2)C(=O)NO)cc(C)c1F` [Compound 167530, (R)-6-(4-Fluoro-3,5-dimethyl-benzenesulfonylamino)-2-(4-fluoro-3,5-dimethyl-phenylamino)-hexanoic acid hydroxyamide], the Ki is reported as 370 nM.
`Cc1cc(N[C@H](CCCCNS(C)(=O)=O)C(=O)NO)cc(C)c1F` [Compound 167531, (R)-2-(4-Fluoro-3,5-dimethyl-phenylamino)-6-methanesulfonylamino-hexanoic acid hydroxyamide] was tested, and the Ki was 1000 nM.
`Cc1cc(C(=O)NCCCC[C@@H](Nc2cc(C)c(F)c(C)c2)C(=O)NO)ccc1F` [Compound 167551, (R)-4-Fluoro-N-[5-(4-fluoro-3,5-dimethyl-phenylamino)-5-hydroxycarbamoyl-pentyl]-3-methyl-benzamide] was tested, and the Ki was 390 nM.
Compound `CC(=O)NCCCC[C@@H](Nc1cc(C)c(F)c(C)c1)C(=O)NO` [Compound 167552, (R)-6-Acetylamino-2-(4-fluoro-3,5-dimethyl-phenylamino)-hexanoic acid hydroxyamide] has a Ki of 2530 nM.
`Cc1cc(N[C@H](CCCCNC(=O)OC(C)(C)C)C(=O)NO)cc(C)c1F` [Compound 167561, (R)-[5-(4-Fluoro-3,5-dimethyl-phenylamino)-5-hydroxycarbamoyl-pentyl]-carbamic acid tert-butyl ester] was tested, and the Ki was 710 nM.
Work on `Cc1cc(N[C@H](CCCCNC(=O)c2ccccc2)C(=O)NO)cc(C)c1F` [Compound 167587, (R)—N-[5-(4-Fluoro-3,5-dimethyl-phenylamino)-5-hydroxycarbamoyl-pentyl]-benzamide] yielded a Ki of 970 nM.
`Cc1cc(N[C@H](CCCCNC(=O)Cc2ccccc2)C(=O)NO)cc(C)c1F` [Compound 167588, (R)-2-(4-Fluoro-3,5-dimethyl-phenylamino)-6-phenylacetylamino-hexanoic acid hydroxyamide] showed a Ki of 1200 nM.
`Cc1cc(N[C@H](CCCCNS(=O)(=O)c2ccc(F)cc2)C(=O)NO)cc(C)c1F` [Compound 167589, (R)-6-(4-Fluoro-benzenesulfonylamino)-2-(4-fluoro-3,5-dimethyl-phenylamino)-hexanoic acid hydroxyamide] was tested, and the Ki was 1250 nM.
Compound `Cc1cc(S(=O)(=O)NCCCC[C@@H](Nc2cc(C)c(F)c(C)c2)C(=O)NO)ccc1F` [Compound 167590, (R)-2-(4-Fluoro-3,5-dimethyl-phenylamino)-6-(4-fluoro-3-methyl-benzenesulfonylamino)-hexanoic acid hydroxyamide] has a Ki of 250 nM.
`Cc1cc(N[C@H](CCCCNC(=O)Cc2ccc(-n3c(C)ccc3C)cc2)C(=O)NO)cc(C)c1F` [Compound 167592, (R)-6-{2-[4-(2,5-Dimethyl-pyrrol-1-yl)-phenyl]-acetylamino}-2-(4-fluoro-3,5-dimethyl-phenylamino)-hexanoic acid hydroxyamide] was tested, and the Ki was 1440 nM.
`Cc1cc(N[C@H](CCCCn2c(C)ccc2C)C(=O)NO)cc(C)c1F` [Compound 167605, (R)-6-(2,5-Dimethyl-pyrrol-1-yl)-2-(4-fluoro-3,5-dimethyl-phenylamino)-hexanoic acid hydroxyamide] showed a Ki of 2000 nM.
`Cc1cc(N[C@H](CCCCNC(=O)C(c2ccccc2)c2ccccc2)C(=O)NO)cc(C)c1F` [Compound 167610, (R)-6-Diphenylacetylamino-2-(4-fluoro-3,5-dimethyl-phenylamino)-hexanoic acid hydroxyamide] showed a Ki of 1340 nM.
`Cc1cc(N[C@H](CCCCNC(=O)Cc2cccc(Oc3ccccc3)c2)C(=O)NO)cc(C)c1F` [Compound 167611, (R)-2-(4-Fluoro-3,5-dimethyl-phenylamino)-6-[2-(3-phenoxy-phenyl)-acetylamino]-hexanoic acid hydroxyamide] showed a Ki of 740 nM.
`Cc1cc(N[C@H](CCCCNS(=O)(=O)c2ccc(C(=O)O)cc2)C(=O)NO)cc(C)c1F` [Compound 167613, (R)-4-[5-(4-Fluoro-3,5-dimethyl-phenylamino)-5-hydroxycarbamoyl-pentylsulfamoyl]-benzoic acid] was tested, and the Ki was 3660 nM.
Compound `Cc1cc(NC(=O)NCCCC[C@@H](Nc2cc(C)c(F)c(C)c2)C(=O)NO)ccc1F` [Compound 167614, (R)-2-(4-Fluoro-3,5-dimethyl-phenylamino)-6-[3-(4-fluoro-3-methyl-phenyl)-ureido]-hexanoic acid hydroxyamide] has a Ki of 280 nM.
`Cc1cc(N[C@H](CCCCNS(=O)(=O)c2ccccc2)C(=O)NO)cc(C)c1F` [Compound 167615, (R)-6-Benzenesulfonylamino-2-(4-fluoro-3,5-dimethyl-phenylamino)-hexanoic acid hydroxyamide] gave a Ki of 840 nM.
Work on `Cc1cc(N[C@H](CCCCNC(=O)CCC(=O)O)C(=O)NO)cc(C)c1F` [Compound 167620, (R)—N-[5-(4-Fluoro-3,5-dimethyl-phenylamino)-5-hydroxycarbamoyl-pentyl]-succinamic acid] yielded a Ki of 3500 nM.
Work on `Cc1cc(N[C@H](CCCCNS(=O)(=O)c2cccc(C(=O)O)c2)C(=O)NO)cc(C)c1F` [Compound 167621, (R)-3-[5-(4-Fluoro-3,5-dimethyl-phenylamino)-5-hydroxycarbamoyl-pentylsulfamoyl]-benzoic acid] yielded a Ki of 1570 nM.
`Cc1cc(N[C@H](CCCCNS(=O)(=O)c2cccc([N+](=O)[O-])c2)C(=O)NO)cc(C)c1F` [Compound 167622, (R)-2-(4-Fluoro-3,5-dimethyl-phenylamino)-6-(3-nitro-benzenesulfonylamino)-hexanoic acid hydroxyamide] showed a Ki of 150 nM.
`CCCCC(Nc1cc(C)cc(Cl)c1)C(=O)NO` (stereo not drawn) [Compound 167645, 2-(3-Chloro-5-methyl-phenylamino)-hexanoic acid hydroxyamide] showed a Ki of 2200 nM.
Work on `Cc1cc(N[C@H](CCCCNS(=O)(=O)c2ccc(N)cc2)C(=O)NO)cc(C)c1F` [Compound 167656, (R)-6-(4-Amino-benzenesulfonylamino)-2-(4-fluoro-3,5-dimethyl-phenylamino)-hexanoic acid hydroxyamide] yielded a Ki of 610 nM.
Compound `CNc1ccc(S(=O)(=O)NCCCC[C@@H](Nc2cc(C)c(F)c(C)c2)C(=O)NO)cc1` [Compound 167657, (R)-2-(4-Fluoro-3,5-dimethyl-phenylamino)-6-(4-methylamino-benzenesulfonylamino)-hexanoic acid hydroxyamide] has a Ki of 410 nM.
`CNc1cccc(S(=O)(=O)NCCCC[C@@H](Nc2cc(C)c(F)c(C)c2)C(=O)NO)c1` [Compound 167667, (R)-2-(4-Fluoro-3,5-dimethyl-phenylamino)-6-(3-methylamino-benzenesulfonylamino)-hexanoic acid hydroxyamide] was tested, and the Ki was 590 nM.
For `Cc1cccc(CNCCCC[C@@H](Nc2cc(C)c(F)c(C)c2)C(=O)NO)c1` [Compound 167698, (R)-2-(4-Fluoro-3,5-dimethyl-phenylamino)-6-(3-methyl-benzylamino)-hexanoic acid hydroxyamide], the Ki was 160 nM.
